Where no end group is shown, it is not given here.
Legend:
[1] = mouse, in vivo; for signs of toxicity: iv
[2] = molecular target: complex of peptide 25 (aa 240-254) of M. tuberculosis Ag85B and the mouse MHC II allele I-A^b (Mycobacterium tuberculosis; mouse) (UniProt P14434); assay: cell-based or functional assay

Substance | signs of toxicity [1] | morbidity or mortality [1] | frequency of IFN-γ+ P25TCRTh1 cells in the lungs of H37Rv-infected mice six hours after intravenous peptide 25 [2] [%]
ISQAVHAAHAEINEAGR [OVA peptide, ISQAVHAAHAEINEAGR, reference compound] | Neither group of mice displayed any signs of toxicity |  | 
FQDAYNAAGGHNAVF [peptide 25, FQDAYNAAGGHNAVF] | Neither group of mice displayed any signs of toxicity | no morbidity or mortality was observed | 
P25TCR transgenic T-cell antigen receptor (on P25TCRTh1 CD4+ Th1 effector cells from P25TCR-Tg mice) |  |  | 20 to 50

Reference: US20130243801A1, “EPITOPE THERAPY FOR INFECTIOUS DISEASES” (NEW YORK UNIVERSITY, priority 2010, published 2013)
